Values joined by “and” are separate entries in the source; they are usually repeats but may differ in a detail not shown here. Identical values can stand only once.
Assays:
AcpS^F50/50A = AcpS^F50/50A (Escherichia coli, UniProt P24224, F49A); test: Inhibition of purified AcpS site-directed mutant by DNM0547; format: biochemical, E. coli
Method: Using purified E. coli AcpS proteins, we determined the enzyme activity of wild-type and numerous AcpS mutants. Those analyzed by scanning alanine mutagenesis included (S. aureus amino acid residue followed by the corresponding E. coli residue) R46/48, F50/50, R54/53, K63/62, N82/81, and H-/108.
Recombinant His-Tagged AcpS expression was induced by IPTG addition and overnight culture. Cell lysate was obtained by sequential aspiration through 16, 18 and 21 G needles in a buffer of 50 mM Tris-HCl (pH 8.5), 10 mM MgCl2, 2 mM DTT, 5% glycerol, and further adjusted to pH 8.1 with MES. […] In a typical AcpS enzyme activity assay, 57 µM [^3H]acetyl-CoA, 2 µg apo-ACP, 10 mM MgCl2, 5 mM DTT, 50 mM Na phosphate (pH 7.0), and AcpS in a final volume of 10 µL were incubated at room temperature in a 1.5 mL microcentrifuge tube. At 5, 10, 15, and 20 min 2 µL of reaction were added to 750 µl 10% TCA on ice. […] 2 mL of scintillation fluid was added, and the amount of [^3H]-labeled holo-ACP formed was quantified by liquid scintillation counting. […] Routinely, each data point was determined at least by triplicate. […]
coli wild type and AcpS mutants determined using purified proteins. b, AcpS enzyme activity for each AcpS mutant was assayed at increasing concentration of DNM0547 (0-128 µM). IC50 was determined using GraphPad Prism. […]

AcpS^N82/81A = biological target: T1, AcpS^N82/81A (Escherichia coli, UniProt P24224, N81A); test: as above; format: biochemical, E. coli; conditions: for AcpS rate nM/min, Mean / AcpS rate: Suppl Fig 3, [AcpS_N81A] 5nM; for AcpS rate: replicates
T1 construct: 6x-His (C); made in house
T1 sequence (P24224 whole entry N81A): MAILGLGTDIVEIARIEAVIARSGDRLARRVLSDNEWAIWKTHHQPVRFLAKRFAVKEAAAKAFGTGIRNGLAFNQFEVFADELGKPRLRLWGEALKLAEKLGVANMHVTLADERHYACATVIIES

[1] = system: 102 ATCC strains and clinical isolates of Staphylococcus, Streptomyces, and Enterococcus; test: MIC panel summary over all strains; format: cell-based; conditions: of the seven strains above 2 μg/mL
Method: (§1) We also sought to determine if DNM0547 was bacteriostatic or bactericidal. Time kill experiments were carried out using increasing doses of DNM0547 against two different strains of MRSA.
The medium employed for the assay was Mueller Hinton II Broth (MHB II; Becton-Dickinson, Sparks, MD, USA). Agar plates used for the organisms were trypticase soy agar plus 5% sheep blood (BD; Sparks, MD, USA). MIC assay plates were prepared using the CLSI broth microdilution procedure. Automated liquid handlers (Multidrop 384, Biomek 2000 and Biomek FX) were used to conduct serial dilutions and liquid transfers. A standardized inoculum of each organism was prepared per CLSI methods. Suspensions were prepared to equal a 0.5 McFarland standard, followed by a 1:20 dilution in test media. The inocula were dispensed into sterile reservoirs divided by length (Beckman Colter) and the Biomek 2000 was used to inoculate the plates. Daughter plates were placed on the Biomek 2000 work surface in reverse orientation so that inoculation took place from low to high drug concentration. The Biomek 2000 delivered 10 μL of the diluted suspension into each well. These inoculations yielded a final cell concentration in the daughter plates of ~5 × 10^5 colony-forming units/mL in each well. The wells of the daughter plates ultimately contained 185 μL of broth, 5 μL of drug solution, and 10 μL of bacterial inoculum. Plates were covered with a sterile lid on the top plate, placed in plastic bags, and incubated at 35 °C for ~18 h. The microplates were viewed from the bottom using a plate viewer and the MIC was read. The MIC was recorded as the lowest concentration of drug that inhibited visible growth of the organism.

[2] = system: MRSA MMX 2119 (NRS23, USA100) and MRSA MMX 4675 (ATCC BAA-1556, USA300); test: Time kill; format: cell-based, S. aureus; conditions: for drop in surviving bacteria: two strains of MRSA
Method: as §1
Supplementary Figure 5. Time kill of DNM0547 versus S. aureus. The time kill of DNM0547
4675 (ATCC BAA-1556, USA300) were determined. Representative experiments are shown. […]

AcpS^F50/50A, sequence (P24224 2-126 F49A): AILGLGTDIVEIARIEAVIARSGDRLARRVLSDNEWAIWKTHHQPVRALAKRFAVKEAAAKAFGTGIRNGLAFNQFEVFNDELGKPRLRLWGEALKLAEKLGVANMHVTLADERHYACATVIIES

In the case of `CC(C)c1cc(Cl)ccc1-c1cc(-c2nnn[nH]2)c(-c2ccc(Cl)cc2C(C)C)s1` [DNM0547], the IC50 (AcpS^F50/50A) is reported as 16.2 µM, the IC50 (AcpS^N82/81A) is reported as 5 µM and the “AcpS rate nM/min, Mean” value (AcpS^N82/81A; Drug Conc 1 uM) is reported as 7.81 nM/min. For the same compound, the “AcpS rate” value (AcpS^N82/81A; Drug Conc 1 uM) was 7.96 nM/min and 7.81 nM/min and 7.64 nM/min, the “AcpS rate nM/min, Mean” value (AcpS^N82/81A; Drug Conc 2 uM) was 6.86 nM/min and the “AcpS rate” value (AcpS^N82/81A; Drug Conc 2 uM) was 6.91 nM/min and 7.01 nM/min and 6.66 nM/min. For the same compound, the “AcpS rate nM/min, Mean” value (AcpS^N82/81A; Drug Conc 4 uM) was 4.72 nM/min, the “AcpS rate” value (AcpS^N82/81A; Drug Conc 4 uM) was 4.74 nM/min and 4.76 nM/min and 4.66 nM/min and the “AcpS rate nM/min, Mean” value (AcpS^N82/81A; Drug Conc 8 uM) was 3.23 nM/min. For the same compound, the “AcpS rate” value (AcpS^N82/81A; Drug Conc 8 uM) was 2.93 nM/min and 3.30 nM/min and 3.44 nM/min, the “AcpS rate nM/min, Mean” value (AcpS^N82/81A; Drug Conc 16 uM) was 2.83 nM/min and the “AcpS rate” value (AcpS^N82/81A; Drug Conc 16 uM) was 3.20 nM/min and 2.39 nM/min and 2.90 nM/min. For the same compound, the “AcpS rate nM/min, Mean” value (AcpS^N82/81A; Drug Conc 32 uM) was 1.69 nM/min, the “AcpS rate” value (AcpS^N82/81A; Drug Conc 32 uM) was 1.65 nM/min and 1.74 nM/min and 1.68 nM/min and the “AcpS rate nM/min, Mean” value (AcpS^N82/81A; Drug Conc 64 uM) was 1.60 nM/min. The “AcpS rate” value (AcpS^N82/81A; Drug Conc 64 uM) was 1.52 nM/min and 1.63 nM/min and 1.65 nM/min, the “AcpS rate nM/min, Mean” value (AcpS^N82/81A; Drug Conc 128 uM) was 1.34 nM/min and the “AcpS rate” value (AcpS^N82/81A; Drug Conc 128 uM) was 1.38 nM/min and 1.44 nM/min and 1.20 nM/min. It also gave a remaining activity at 1 µM (AcpS^N82/81A; read-out: % of untreated, Suppl Fig 3, [AcpS_N81A] 5nM, Drug Conc 1 uM, replicates) of 105%, a remaining activity at 2 µM (AcpS^N82/81A; read-out: % of untreated, Suppl Fig 3, [AcpS_N81A] 5nM, Drug Conc 2 uM, replicates) of 90.9% and a remaining activity at 4 µM (AcpS^N82/81A; read-out: % of untreated, Suppl Fig 3, [AcpS_N81A] 5nM, Drug Conc 4 uM, replicates) of 62.4%. The remaining activity at 8 µM (AcpS^N82/81A; read-out: % of untreated, Suppl Fig 3, [AcpS_N81A] 5nM, Drug Conc 8 uM, replicates) was 38.5%, the remaining activity at 16 µM (AcpS^N82/81A; read-out: % of untreated, Suppl Fig 3, [AcpS_N81A] 5nM, Drug Conc 16 uM, replicates) was 42.1% and the remaining activity at 32 µM (AcpS^N82/81A; read-out: % of untreated, Suppl Fig 3, [AcpS_N81A] 5nM, Drug Conc 32 uM, replicates) was 21.7%. For the same compound, the remaining activity at 64 µM (AcpS^N82/81A; read-out: % of untreated, Suppl Fig 3, [AcpS_N81A] 5nM, Drug Conc 64 uM, replicates) was 20%, the remaining activity at 128 µM (AcpS^N82/81A; read-out: % of untreated, Suppl Fig 3, [AcpS_N81A] 5nM, Drug Conc 128 uM, replicates) was 18.1% and the “number of strains with MIC 4 μg/mL” value [1] was “four”. The “number of strains with MIC 8 μg/mL” value [1] was “two”, the “number of strains with MIC 32 μg/mL” value [1] was “one” and the “drop in surviving bacteria” value ([2]; 2x MIC, at 2 h and 6 h) was “three”. The “drop in surviving bacteria” value ([2]; 4x and 8x MIC, at 2 h) was “three”, the CFU/mL ([2]; Suppl Fig 5a, S. aureus MMX 2119, 2X, 0 hr) was 7.70E+05 CFU/mL and the CFU/mL ([2]; Suppl Fig 5a, S. aureus MMX 2119, 2X, 2 hr) was 6.00E+02 CFU/mL. The CFU/mL ([2]; Suppl Fig 5a, S. aureus MMX 2119, 2X, 6 hr) was 3.00E+02 CFU/mL, the CFU/mL ([2]; Suppl Fig 5a, S. aureus MMX 2119, 2X, 24 hr) was “LOD” and the CFU/mL ([2]; Suppl Fig 5a, S. aureus MMX 2119, 4X, 0 hr) was 7.70E+05 CFU/mL. The CFU/mL ([2]; Suppl Fig 5a, S. aureus MMX 2119, 4X, 2 hr) was 4.50E+02 CFU/mL, the CFU/mL ([2]; Suppl Fig 5a, S. aureus MMX 2119, 4X, 6 hr) was 1.50E+02 CFU/mL and the CFU/mL ([2]; Suppl Fig 5a, S. aureus MMX 2119, 4X, 24 hr) was “LOD”. For the same compound, the CFU/mL ([2]; Suppl Fig 5a, S. aureus MMX 2119, 8X, 0 hr) was 7.70E+05 CFU/mL, the CFU/mL ([2]; Suppl Fig 5a, S. aureus MMX 2119, 8X, 2 hr) was “LOD” and the CFU/mL ([2]; Suppl Fig 5a, S. aureus MMX 2119, 8X, 6 hr) was “LOD”. For the same compound, the CFU/mL ([2]; Suppl Fig 5a, S. aureus MMX 2119, 8X, 24 hr) was “LOD”, the CFU/mL ([2]; Suppl Fig 5b, S. aureus MMX 4657, 2X, 0 hr) was 1.01E+06 CFU/mL and the CFU/mL ([2]; Suppl Fig 5b, S. aureus MMX 4657, 2X, 2 hr) was 1.05E+03 CFU/mL. For the same compound, the CFU/mL ([2]; Suppl Fig 5b, S. aureus MMX 4657, 2X, 6 hr) was “LOD”, the CFU/mL ([2]; Suppl Fig 5b, S. aureus MMX 4657, 2X, 24 hr) was “LOD” and the CFU/mL ([2]; Suppl Fig 5b, S. aureus MMX 4657, 4X, 0 hr) was 1.01E+06 CFU/mL. For the same compound, the CFU/mL ([2]; Suppl Fig 5b, S. aureus MMX 4657, 4X, 2 hr) was 2.50E+02 CFU/mL, the CFU/mL ([2]; Suppl Fig 5b, S. aureus MMX 4657, 4X, 6 hr) was “LOD” and the CFU/mL ([2]; Suppl Fig 5b, S. aureus MMX 4657, 4X, 24 hr) was “LOD”. For the same compound, the CFU/mL ([2]; Suppl Fig 5b, S. aureus MMX 4657, 8X, 0 hr) was 1.01E+06 CFU/mL, the CFU/mL ([2]; Suppl Fig 5b, S. aureus MMX 4657, 8X, 2 hr) was “LOD” and the CFU/mL ([2]; Suppl Fig 5b, S. aureus MMX 4657, 8X, 6 hr) was “LOD”. For the same compound, the CFU/mL ([2]; Suppl Fig 5b, S. aureus MMX 4657, 8X, 24 hr) was “LOD”.

Reference: PMC11436758, “Computer-aided drug design to generate a unique antibiotic family” (Nature Communications, 2024)
